Results from patent US20160158317A1, “Antimicrobial Peptide Variants and Polynucleotides Encoding Same” (Adenium Biotech A/S, priority 2010, published 2016).
Where a SMILES comes first, the peptide text is derived from it. Bridges are numbered along the chain shown (N, C = ends).

Assay: Determination of the protein binding (90% serum, 30 kDa filter, HPLC)
Assay type: in vitro ADME
Conditions: serum
Experimental: Protein binding assays were performed as follows. The purified peptides were mixed with 90% serum and centrifuged through a 30 kDa filter. The ultra-filtrate and the non filtrated serum samples were quantified by HPLC measurements and the protein binding was subsequently calculated.

**Q.** For `CC(C)[C@@H]1NC(=O)[C@@H]2CSSC[C@H](NC(=O)[C@H](C)NC(=O)[C@H](CCCNC(=N)N)NC(=O)[C@H](CCCCN)NC(=O)CNC(=O)[C@H](CC(N)=O)NC(=O)[C@H](CCCNC(=N)N)NC(=O)[C@H](Cc3ccc(O)cc3)NC1=O)C(=O)N[C@@H](Cc1ccc(O)cc1)C(=O)N[C@@H](CCCNC(=N)N)C(=O)N[C@@H](CCCNC(=N)N)C(=O)N[C@H](C(=O)N[C@@H](CC(N)=O)C(=O)O)CSSC[C@H](NC(=O)[C@H](Cc1ccccc1)NC(=O)CN)C(=O)NCC(=O)N[C@@H](CCCNC(=N)N)C(=O)N[C@@H](C(C)C)C(=O)N2` [compound 386] (H-GFCGRVCVYRNGKRACYRRCN-OH; disulfide 3-20, 7-16 (inferred); N-terminus and C-terminus assumed), which fraction unbound is on record?
**A.** 0.19

**Q.** With `CC(C)[C@@H]1NC(=O)[C@@H]2CSSC[C@H](NC(=O)[C@H](CO)NC(=O)[C@H](CCCNC(=N)N)NC(=O)[C@H](CCCCN)NC(=O)CNC(=O)[C@H](CC(N)=O)NC(=O)[C@H](CCCCN)NC(=O)[C@H](Cc3ccc(O)cc3)NC1=O)C(=O)N[C@@H](Cc1ccc(O)cc1)C(=O)N[C@@H](CCCNC(=N)N)C(=O)N[C@@H](CCCNC(=N)N)C(=O)N[C@H](C(=O)N[C@@H](CC(N)=O)C(=O)O)CSSC[C@H](NC(=O)[C@H](Cc1ccccc1)NC(=O)CN)C(=O)N[C@@H](Cc1c[nH]c3ccccc13)C(=O)N[C@@H](Cc1c[nH]cn1)C(=O)N[C@@H](C(C)C)C(=O)N2` [compound 390] (H-GFCWHVCVYKNGKRSCYRRCN-OH; disulfide 3-20, 7-16 (inferred); N-terminus and C-terminus assumed) as the molecule, how does the fraction unbound read?
**A.** 0.13

**Q.** With `CC(C)[C@@H]1NC(=O)[C@H](Cc2c[nH]cn2)NC(=O)[C@H](Cc2c[nH]c3ccccc23)NC(=O)[C@@H](NC(=O)[C@H](Cc2ccccc2)NC(=O)CN)CSSC[C@@H](C(=O)N[C@@H](CC(N)=O)C(=O)O)NC(=O)[C@H](CCCNC(=N)N)NC(=O)[C@H](CCCNC(=N)N)NC(=O)[C@H](Cc2ccc(O)cc2)NC(=O)[C@@H]2CSSC[C@H](NC1=O)C(=O)N[C@@H](C)C(=O)N[C@@H](CCCNC(=N)N)C(=O)N[C@@H](CCCNC(=N)N)C(=O)N[C@@H](CC(N)=O)C(=O)NCC(=O)N[C@@H](C)C(=O)N[C@@H](CCCNC(=N)N)C(=O)N[C@@H](C(C)C)C(=O)N2` [compound 394] (H-GFCWHVCARRNGARVCYRRCN-OH; disulfide 3-20, 7-16 (inferred); N-terminus and C-terminus assumed) as the molecule, how does the fraction unbound read?
**A.** 0.2

**Q.** With `CC(C)C[C@@H]1NC(=O)CNC(=O)[C@H](CC(N)=O)NC(=O)[C@H](CCCNC(=N)N)NC(=O)[C@H](CCCCN)NC(=O)[C@H](CO)NC(=O)[C@@H]2CSSC[C@H](NC(=O)[C@H](C(C)C)NC(=O)[C@H](CCCNC(=N)N)NC1=O)C(=O)N[C@@H](Cc1ccc(O)cc1)C(=O)N[C@@H](CCCNC(=N)N)C(=O)N[C@@H](CCCNC(=N)N)C(=O)N[C@H](C(=O)N[C@@H](CC(N)=O)C(=O)O)CSSC[C@H](NC(=O)[C@H](Cc1ccccc1)NC(=O)CN)C(=O)N[C@@H](Cc1c[nH]c3ccccc13)C(=O)N[C@@H](Cc1c[nH]cn1)C(=O)N[C@@H](C(C)C)C(=O)N2` [compound 396] (H-GFCWHVCSKRNGLRVCYRRCN-OH; disulfide 3-20, 7-16 (inferred); N-terminus and C-terminus assumed) as the molecule, how does the fraction unbound read?
**A.** 0.08

**Q.** For `CC(C)[C@@H]1NC(=O)CNC(=O)[C@H](CC(N)=O)NC(=O)[C@H](CCCNC(=N)N)NC(=O)[C@H](CCCNC(=N)N)NC(=O)[C@H](C)NC(=O)[C@@H]2CSSC[C@H](NC(=O)[C@H](C(C)C)NC(=O)[C@H](CCCNC(=N)N)NC1=O)C(=O)N[C@@H](Cc1ccc(O)cc1)C(=O)N[C@@H](CCCNC(=N)N)C(=O)N[C@@H](CCCNC(=N)N)C(=O)N[C@H](C(=O)N[C@@H](CC(N)=O)C(=O)O)CSSC[C@H](NC(=O)[C@H](Cc1ccccc1)NC(=O)CN)C(=O)N[C@@H](Cc1c[nH]c3ccccc13)C(=O)N[C@@H](CC(N)=O)C(=O)N[C@@H](C)C(=O)N2` [compound 407] (H-GFCWNACARRNGVRVCYRRCN-OH; disulfide 3-20, 7-16 (inferred); N-terminus and C-terminus assumed), which fraction unbound is on record?
**A.** 0.12

**Q.** Which fraction unbound does the source give for `CC(C)[C@@H]1NC(=O)[C@H](CC(N)=O)NC(=O)[C@H](Cc2c[nH]c3ccccc23)NC(=O)[C@@H](NC(=O)[C@H](Cc2ccccc2)NC(=O)CN)CSSC[C@@H](C(=O)N[C@@H](CC(N)=O)C(=O)O)NC(=O)[C@H](CCCNC(=N)N)NC(=O)[C@H](CCCNC(=N)N)NC(=O)[C@H](Cc2ccc(O)cc2)NC(=O)[C@@H]2CSSC[C@H](NC1=O)C(=O)N[C@@H](C)C(=O)N[C@@H](Cc1ccc(O)cc1)C(=O)N[C@@H](CCCNC(=N)N)C(=O)N[C@@H](CC(N)=O)C(=O)NCC(=O)N[C@@H](CCCCN)C(=O)N[C@@H](CCCNC(=N)N)C(=O)N[C@@H](C)C(=O)N2` [compound 411] (H-GFCWNVCAYRNGKRACYRRCN-OH; disulfide 3-20, 7-16 (inferred); N-terminus and C-terminus assumed) here?
**A.** 0.14

**Q.** Which fraction unbound does the source give for `CC(C)[C@@H]1NC(=O)[C@H](CCCNC(=N)N)NC(=O)[C@H](CCCCN)NC(=O)CNC(=O)[C@H](CC(N)=O)NC(=O)[C@H](CCCNC(=N)N)NC(=O)[C@H](Cc2ccc(O)cc2)NC(=O)[C@H](C)NC(=O)[C@@H]2CSSC[C@H](NC1=O)C(=O)N[C@@H](Cc1ccc(O)cc1)C(=O)N[C@@H](CCCNC(=N)N)C(=O)N[C@@H](CCCNC(=N)N)C(=O)N[C@H](C(=O)N[C@@H](CC(N)=O)C(=O)O)CSSC[C@H](NC(=O)[C@H](Cc1ccccc1)NC(=O)CN)C(=O)N[C@@H](Cc1c[nH]c3ccccc13)C(=O)N[C@@H](CCCNC(=N)N)C(=O)N[C@@H](C)C(=O)N2` [compound 417] (H-GFCWRACAYRNGKRVCYRRCN-OH; disulfide 3-20, 7-16 (inferred); N-terminus and C-terminus assumed) here?
**A.** 0.05

**Q.** With `CC(C)[C@@H]1NC(=O)CNC(=O)[C@H](CC(N)=O)NC(=O)[C@H](CCCNC(=N)N)NC(=O)[C@H](Cc2ccc(O)cc2)NC(=O)[C@H](C)NC(=O)[C@@H]2CSSC[C@H](NC(=O)[C@H](C)NC(=O)[C@H](CCCNC(=N)N)NC1=O)C(=O)N[C@@H](Cc1ccc(O)cc1)C(=O)N[C@@H](CCCNC(=N)N)C(=O)N[C@@H](CCCNC(=N)N)C(=O)N[C@H](C(=O)N[C@@H](CC(N)=O)C(=O)O)CSSC[C@H](NC(=O)[C@H](Cc1ccccc1)NC(=O)CN)C(=O)N[C@@H](Cc1c[nH]c3ccccc13)C(=O)N[C@@H](CCCNC(=N)N)C(=O)N[C@@H](C)C(=O)N2` [compound 418] (H-GFCWRACAYRNGVRACYRRCN-OH; disulfide 3-20, 7-16 (inferred); N-terminus and C-terminus assumed) as the molecule, how does the fraction unbound read?
**A.** 0.08

**Q.** With `CC(C)[C@@H]1NC(=O)[C@H](CCCNC(=N)N)NC(=O)[C@H](Cc2c[nH]c3ccccc23)NC(=O)[C@@H](NC(=O)[C@H](Cc2ccccc2)NC(=O)CN)CSSC[C@@H](C(=O)N[C@@H](CC(N)=O)C(=O)O)NC(=O)[C@H](CCCNC(=N)N)NC(=O)[C@H](CCCNC(=N)N)NC(=O)[C@H](Cc2ccc(O)cc2)NC(=O)[C@@H]2CSSC[C@H](NC1=O)C(=O)N[C@@H](C)C(=O)N[C@@H](Cc1ccc(O)cc1)C(=O)N[C@@H](CO)C(=O)N[C@@H](CC(N)=O)C(=O)NCC(=O)N[C@@H](CCCCN)C(=O)N[C@@H](CCCNC(=N)N)C(=O)N[C@@H](C(C)C)C(=O)N2` [compound 425] (H-GFCWRVCAYSNGKRVCYRRCN-OH; disulfide 3-20, 7-16 (inferred); N-terminus and C-terminus assumed) as the molecule, how does the fraction unbound read?
**A.** 0.31

**Q.** With `CC(C)C[C@@H]1NC(=O)CNC(=O)[C@H](CC(N)=O)NC(=O)[C@H](CCCNC(=N)N)NC(=O)[C@H](CO)NC(=O)[C@H](C)NC(=O)[C@@H]2CSSC[C@H](NC(=O)[C@H](C(C)C)NC(=O)[C@H](CCCNC(=N)N)NC1=O)C(=O)N[C@@H](Cc1ccc(O)cc1)C(=O)N[C@@H](CCCNC(=N)N)C(=O)N[C@@H](CCCNC(=N)N)C(=O)N[C@H](C(=O)N[C@@H](CC(N)=O)C(=O)O)CSSC[C@H](NC(=O)[C@H](Cc1ccccc1)NC(=O)CN)C(=O)N[C@@H](Cc1c[nH]c3ccccc13)C(=O)N[C@@H](CCCNC(=N)N)C(=O)N[C@@H](C(C)C)C(=O)N2` [compound 435] (H-GFCWRVCASRNGLRVCYRRCN-OH; disulfide 3-20, 7-16 (inferred); N-terminus and C-terminus assumed) as the molecule, how does the fraction unbound read?
**A.** 0.15

**Q.** For `CC(C)[C@@H]1NC(=O)[C@H](CCCNC(=N)N)NC(=O)[C@H](CCCCN)NC(=O)CNC(=O)[C@H](CC(N)=O)NC(=O)[C@H](CO)NC(=O)[C@H](Cc2ccc(O)cc2)NC(=O)[C@H](Cc2c[nH]cn2)NC(=O)[C@@H]2CSSC[C@H](NC1=O)C(=O)N[C@@H](Cc1ccc(O)cc1)C(=O)N[C@@H](CCCNC(=N)N)C(=O)N[C@@H](CCCNC(=N)N)C(=O)N[C@H](C(=O)N[C@@H](CC(N)=O)C(=O)O)CSSC[C@H](NC(=O)[C@H](Cc1ccccc1)NC(=O)CN)C(=O)N[C@@H](Cc1c[nH]c3ccccc13)C(=O)N[C@@H](CCCNC(=N)N)C(=O)N[C@@H](C(C)C)C(=O)N2` [compound 439] (H-GFCWRVCHYSNGKRVCYRRCN-OH; disulfide 3-20, 7-16 (inferred); N-terminus and C-terminus assumed), which fraction unbound is on record?
**A.** 0.08

**Q.** Which fraction unbound does the source give for `CC(C)C[C@@H]1NC(=O)CNC(=O)[C@H](CC(N)=O)NC(=O)[C@H](CCCNC(=N)N)NC(=O)[C@H](CCCCN)NC(=O)[C@H](C)NC(=O)[C@@H]2CSSC[C@H](NC(=O)[C@H](C(C)C)NC(=O)[C@H](CCCNC(=N)N)NC1=O)C(=O)N[C@@H](Cc1ccc(O)cc1)C(=O)N[C@@H](CCCNC(=N)N)C(=O)N[C@@H](CCCNC(=N)N)C(=O)N[C@H](C(=O)N[C@@H](CC(N)=O)C(=O)O)CSSC[C@H](NC(=O)[C@H](Cc1ccccc1)NC(=O)CN)C(=O)N[C@@H](Cc1c[nH]c3ccccc13)C(=O)N[C@@H](Cc1ccc(O)cc1)C(=O)N[C@@H](C)C(=O)N2` [compound 450] (H-GFCWYACAKRNGLRVCYRRCN-OH; disulfide 3-20, 7-16 (inferred); N-terminus and C-terminus assumed) here?
**A.** 0.02
